{"source": "patent US20090170823A1", "about": "“Dosage Regimens and Pharmaceutical Compositions and Packages for Emergency Contraception” (Duramed Pharmaceuticals, Inc., priority 2007, published 2009)", "origin": "cited, not measured here", "conditions": "relative to 30 μg ethinyl estradiol; see EP 0 253 607", "data": [{"smiles": "C#C[C@]1(O)CC[C@H]2[C@@H]3CCc4cc(OC)ccc4[C@H]3CC[C@@]21C", "note": "[mestranol]", "values": [{"measurement": "amount roughly equivalent to 30 μg of ethinyl estradiol", "value": "~60", "unit": "µg"}]}, {"smiles": "C[C@]12CC[C@@H]3c4ccc(O)cc4CC[C@H]3[C@@H]1CC[C@@H]2O", "note": "[17β-estradiol]", "values": [{"measurement": "amount roughly equivalent to 30 μg of ethinyl estradiol", "value": "~2,000 μg"}]}]}
